Results as given in ChEMBL document CHEMBL1130998, “Structure-activity requirements for flavone cytotoxicity and binding to tubulin” (J Med Chem, 1998).

Tests used:
[1] = tested on: Panel NCI-60 (60 carcinoma cell lines); assay: In vitro cytotoxic potency against NCI-60 human tumor cell line; format: functional
Tubulin = assay: In vitro inhibitory activity against tubulin polymerization (10 uM); format: protein-complex assay
Tubulin (Homo sapiens) = Tubulin (Homo sapiens) (UniProt P68371+Q9H4B7+P0DPH7+P68366+Q13509+Q71U36+P04350+Q3ZCM7+P07437+P68363+Q9BQE3+Q6PEY2+Q13885+Q9BVA1+Q9BUF5); assay: In vitro inhibition of binding of [3H]colchicine to tubulin at 50 mM.; format: protein-complex assay

COc1ccc(-c2cc(=O)c3c(OC)cccc3o2)c(OC)c1OC
GI50 [1]: 89 µM

COc1ccc(-c2oc3c(OC)c(OC)c(OC)c(O)c3c(=O)c2OC)cc1OC
IC50 (Tubulin): > 40 µM
GI50 [1]: 7.1 µM
inhibition (Tubulin (Homo sapiens)): 4%

COc1cc(OC)c(-c2oc3ccccc3c(=O)c2O)c(OC)c1
IC50 (Tubulin): 31 µM
GI50 [1]: 5.9 µM
inhibition (Tubulin (Homo sapiens)): 22%

COc1cc(-c2oc3c(OC)c(OC)cc(O)c3c(=O)c2OC)ccc1O [TERNATIN]
IC50 (Tubulin): > 40 µM
GI50 [1]: 9.5 µM
inhibition (Tubulin (Homo sapiens)): 0%

COc1ccc(-c2oc3cc(OC)c(OC)c(O)c3c(=O)c2O)cc1O
IC50 (Tubulin): > 40 µM
GI50 [1]: 4 µM
inhibition (Tubulin (Homo sapiens)): 9%

COc1ccc(-c2oc3cc(O)c(OC)cc3c(=O)c2OC)cc1O
GI50 [1]: 19 µM

COc1cc(OC)cc(-c2cc(=O)c3c(OC)c(OC)c(OC)c(OC)c3o2)c1
GI50 [1]: 30 µM

COc1cc2oc(-c3ccc(O)cc3)cc(=O)c2c(OC)c1OC
GI50 [1]: > 100 µM

COc1ccc(-c2cc(=O)c3c(O)c(OC)c(OC)c(OC)c3o2)cc1OC [5-DEMETHYLNOBILETIN]
IC50 (Tubulin): > 40 µM
GI50 [1]: 17 µM
inhibition (Tubulin (Homo sapiens)): 5%

COc1ccc(-c2oc3c(OC)c(OC)c(OC)c(OC)c3c(=O)c2OC)cc1OC [3,5,6,7,8,3',4'-HEPTAMETHOXYFLAVONE]
IC50 (Tubulin): > 40 µM
GI50 [1]: > 27 µM
inhibition (Tubulin (Homo sapiens)): 1%

COc1cc2oc(-c3ccccc3)cc(=O)c2c(O)c1C
GI50 [1]: > 100 µM

COc1ccc(-c2oc3cc(OC)cc(O)c3c(=O)c2OC)cc1
GI50 [1]: 54 µM

COc1ccc(-c2oc3cc(OC)ccc3c(=O)c2O)cc1
GI50 [1]: 4.2 µM

COc1c(OC)c(OC)c(-c2cc(=O)c3c(OC)c(OC)c(OC)c(OC)c3o2)c(OC)c1OC
GI50 [1]: 36 µM

COc1cc(-c2cc(=O)c3ccccc3o2)cc(OC)c1OC
IC50 (Tubulin): > 40 µM
GI50 [1]: 18 µM
inhibition (Tubulin (Homo sapiens)): 0%

COc1cc(O)c2c(=O)c(OC)c(-c3ccc(OC)c(O)c3)oc2c1 [AYANIN]
IC50 (Tubulin): > 40 µM
GI50 [1]: 32 µM
inhibition (Tubulin (Homo sapiens)): 0%

COc1ccc(-c2cc(=O)c3c(O)c(OC)c(O)c(OC)c3o2)cc1 [NEVADENSIN]
GI50 [1]: 59 µM

COc1cc(OC)c2c(=O)cc(-c3ccc(OC)c(OC)c3OC)oc2c1
GI50 [1]: 79 µM

COc1ccc(-c2cc(=O)c3c(OC)c(OC)c(OC)c(OC)c3o2)cc1 [TANGERETIN]
GI50 [1]: 54 µM

COc1ccc(-c2cc(=O)c3c(O)c(OC)c(O)cc3o2)cc1 [PECTOLINARIGENIN]
IC50 (Tubulin): > 40 µM
GI50 [1]: > 31 µM
inhibition (Tubulin (Homo sapiens)): 11%

COc1cc(O)c2c(=O)c(O)c(-c3ccc(OC)c(O)c3)oc2c1 [OMBUINE]
GI50 [1]: 37 µM

COc1c(OC)c(O)c2c(=O)cc(-c3ccc(O)c(O)c3)oc2c1OC [SIDERITIFLAVONE]
GI50 [1]: 4 µM

COc1cc(-c2oc3c(OC)c(OC)c(OC)c(O)c3c(=O)c2OC)ccc1O
IC50 (Tubulin): > 40 µM
GI50 [1]: 7.6 µM
inhibition (Tubulin (Homo sapiens)): 0%

COc1ccc(-c2cc(=O)c3c(O)cc(O)cc3o2)c(OC)c1OC
GI50 [1]: 68 µM

COc1ccc(-c2cc(=O)c3c(OC)c(OC)c(OC)cc3o2)cc1
GI50 [1]: 28 µM

CCOc1cc(O)c2c(=O)c(OC)c(-c3ccc(OC)c(O)c3)oc2c1
GI50 [1]: 12 µM

COc1ccc(-c2cc(=O)c3c(O)cc(O)cc3o2)cc1OC
GI50 [1]: 48 µM

COc1ccc(-c2oc3cc(OC)c(C)c(C)c3c(=O)c2OC)cc1O
GI50 [1]: 44 µM

O=c1c(O)c(-c2c(O)cccc2O)oc2cc(O)cc(O)c12
GI50 [1]: > 100 µM

O=c1c(O)c(-c2ccc(O)c(O)c2)oc2cc(O)cc(O)c12 [QUERCETIN]
GI50 [1]: 60 µM

COc1cc(-c2cc(=O)c3c(O)c(OC)c(OC)c(OC)c3o2)cc(OC)c1OC [GARDENIN]
IC50 (Tubulin): > 40 µM
GI50 [1]: 19 µM
inhibition (Tubulin (Homo sapiens)): 0%

COc1ccc(-c2cc(=O)c3c(O)c(O)c(OC)cc3o2)cc1O
GI50 [1]: > 100 µM

COc1ccc(-c2oc3cc(OC)c(O)c(OC)c3c(=O)c2OC)cc1O
GI50 [1]: 54 µM

COc1cc(-c2cc(=O)c3c(O)c(OC)c(OC)c(OC)c3o2)ccc1O
GI50 [1]: 22 µM

COc1cc2oc(-c3ccc(O)cc3)cc(=O)c2c(OC)c1O
GI50 [1]: 62 µM

COc1ccccc1-c1cc(=O)c2ccc(OC)c(OC)c2o1
GI50 [1]: 55 µM

O=c1c(O)c(-c2cc(O)c(O)c(O)c2)oc2cc(O)cc(O)c12 [MYRICETIN]
GI50 [1]: 36 µM

COc1cc(O)c2c(=O)c(OC)c(-c3ccc(OC)c(OC)c3)oc2c1 [RETUSIN]
GI50 [1]: 65 µM

COc1ccc2c(=O)c(O)c(-c3ccc(OC)c(OC)c3)oc2c1
IC50 (Tubulin): > 40 µM
GI50 [1]: 5.5 µM
inhibition (Tubulin (Homo sapiens)): 0%

COc1ccc(-c2oc3cc(O)c(C)c(C)c3c(=O)c2OC)cc1O
GI50 [1]: 12 µM

COc1ccc(-c2cc(=O)c3c(O)c(OC)c(O)cc3o2)cc1O
GI50 [1]: 6 µM

COc1cc(OC)c2c(=O)c(O)c(-c3ccc(OC)c(OC)c3)oc2c1
IC50 (Tubulin): > 40 µM
GI50 [1]: 6.6 µM
inhibition (Tubulin (Homo sapiens)): 0%

COc1cc(-c2oc3c(OC)c(O)c(OC)c(O)c3c(=O)c2OC)cc(OC)c1OC
IC50 (Tubulin): > 40 µM
GI50 [1]: 54 µM
inhibition (Tubulin (Homo sapiens)): 6%

COc1ccc(-c2cc(=O)c3cc(O)ccc3o2)c(OC)c1OC
GI50 [1]: 30 µM

COc1ccc2c(=O)cc(-c3ccc(OC)c(OC)c3OC)oc2c1
GI50 [1]: 78 µM

COc1cc(-c2oc3c(OC)cc(OC)c(O)c3c(=O)c2OC)cc(OC)c1OC
GI50 [1]: 19 µM

COc1cc(O)c2c(=O)c(O)c(-c3ccc(O)c(O)c3)oc2c1 [RHAMNETIN]
GI50 [1]: 8.9 µM

COc1cc(OC)c(-c2cc(=O)c3c(O)c(OC)c(OC)c(OC)c3o2)cc1OC
GI50 [1]: 60 µM

COc1ccc(-c2cc(=O)c3ccc(O)cc3o2)c(OC)c1OC
GI50 [1]: 58 µM

COc1ccc(-c2cc(=O)c3c(OC)c(O)c(OC)cc3o2)cc1
GI50 [1]: 43 µM

COc1cc(-c2oc3c(OC)c(O)c(OC)c(O)c3c(=O)c2OC)ccc1O
IC50 (Tubulin): > 40 µM
GI50 [1]: 27 µM
inhibition (Tubulin (Homo sapiens)): 6%

COc1c(O)cc2oc(-c3ccc(O)cc3)cc(=O)c2c1O [HISPIDULIN]
GI50 [1]: 33 µM

COc1c(C)c(O)c2c(=O)cc(-c3ccccc3)oc2c1C
GI50 [1]: > 100 µM

COc1ccc(-c2oc3cc(O)cc(O)c3c(=O)c2OC)cc1 [ERMANIN]
GI50 [1]: 24 µM

COc1cc(-c2oc3c(OC)c(O)c(OC)c(O)c3c(=O)c2OC)cc(O)c1OC
GI50 [1]: 32 µM

COc1ccc(-c2oc3cc(OC)c(OC)c(OC)c3c(=O)c2O)cc1O
IC50 (Tubulin): > 40 µM
GI50 [1]: 14 µM
inhibition (Tubulin (Homo sapiens)): 2%

COc1ccc(-c2oc3c(O)c(OC)cc(O)c3c(=O)c2OC)cc1OC
GI50 [1]: > 100 µM

COc1ccc(-c2oc3cc(O)cc(O)c3c(=O)c2OC)cc1OCc1ccccc1
GI50 [1]: 8.3 µM

COc1ccc(-c2oc3ccccc3c(=O)c2O)cc1OC [3-HYDROXY-3',4'-DIMETHOXYFLAVONE]
GI50 [1]: 32 µM

COc1ccc2oc(-c3ccc(OC)c(OC)c3OC)cc(=O)c2c1
GI50 [1]: 42 µM

COc1ccc(-c2cc(=O)c3c(OC)c(OC)c(OC)c(OC)c3o2)c(OC)c1
GI50 [1]: 26 µM

COc1cc(-c2oc3cc(OC)c(OC)c(O)c3c(=O)c2OC)ccc1O [CHRYSOSPLENOL B]
GI50 [1]: > 33 µM

COc1ccc(-c2cc(=O)c3c(O)c(OC)c(O)cc3o2)cc1OC [EUPATILIN]
IC50 (Tubulin): > 40 µM
GI50 [1]: 15 µM
inhibition (Tubulin (Homo sapiens)): 6%

COc1c(O)c(OC)c2oc(-c3ccc(O)c(O)c3)c(OC)c(=O)c2c1O
GI50 [1]: 20 µM

COc1ccc(-c2cc(=O)c3c(O)cc(C)cc3o2)cc1OC
GI50 [1]: > 100 µM

COc1ccc(-c2oc3cc(O)c(OC)c(O)c3c(=O)c2O)cc1 [BETULETOL]
GI50 [1]: 4.1 µM

COc1ccc(-c2cc(=O)c3c(OC)c(OC)c(OC)c(OC)c3o2)cc1OC [NOBILETIN]
GI50 [1]: 40 µM

O=c1c(O)c(-c2ccc(O)c(O)c2)oc2cc(O)ccc12 [FISETIN]
GI50 [1]: 18 µM

COc1ccc(-c2oc3cc(OC(C)=O)cc(OC(C)=O)c3c(=O)c2OC)cc1
GI50 [1]: 15 µM

COc1ccc(OC)c(-c2cc(=O)c3c(OC)c(OC)c(OC)c(OC)c3o2)c1
GI50 [1]: 24 µM

COc1c(OC)c(OC)c2c(=O)cc(-c3ccc(OC(C)C)cc3)oc2c1OC
GI50 [1]: 11 µM

COc1cc(-c2cc(=O)c3c(OC)c(OC)c(OC)c(OC)c3o2)cc(OC)c1OC [HEPATAMETHOXYFLAVONE]
GI50 [1]: 32 µM

COc1ccc(-c2cc(=O)c3c(O)cccc3o2)c(OC)c1OC
GI50 [1]: 45 µM

COc1ccc(-c2oc3ccc(C)cc3c(=O)c2O)cc1
GI50 [1]: 76 µM

COc1cc(OC)c2c(=O)c(OC)c(-c3ccc(OC)c(O)c3)oc2c1
GI50 [1]: > 100 µM
